Laboratory results taken from PMC5459853, “Cathepsin S inhibition combines control of systemic and peripheral pathomechanisms of autoimmune tissue injury” (Scientific Reports, 2017).
“Also recorded” adds a separate entry of the source.

Experiments:
Type in all cases: in vivo
[1] = system: MRL-(Fas)lpr mice; test: Intravenous recombinant Cat-S injection: albuminuria and glomerular ultrastructure (TEM); settings: 10 µg recombinant Cat-S i.v.
Experimental: (§1) Four-week-old female MRL-(Fas)lpr mice were purchased from Harlan Winkelmann (Borchen, Germany) and kept under pathogen-free conditions in a 12 hour light and dark cycle with free access to food and water. All animal experiments were performed in accordance with the European protection laws of animal welfare, and with approval by the local government authorities Regierung von Oberbayern (reference number: 55.2.1-54-2532.2-11-12). At 11 or 15 weeks of age only mice with proteinuria (Albustix, Bayer AG, Leverkusen, Germany) were randomized into five different groups (n = 10) receiving different medicated diets: Three groups were fed with chow mixed with either 3, 10 or 30 mg/kg/day RO5459072, another group’s chow was mixed with 100 mg/kg/day mycophenolate mofetil (MMF), and one group received a standard diet (vehicle). The dose of MMF was chosen according to several studies reporting strong efficacy on SLE and lupus nephritis in MRL-(Fas)lpr mice[24]–[26]. […] At the age of 19 weeks all mice were sacrificed by cervical dislocation. Blood and urine samples were collected at different time points as indicated. In other experiments 7 week old female MRL-(Fas)lpr mice were randomized into three groups (n = 3) to receive a single intravenous injection of 10 µg sterile recombinant Cat-S and one group receiving vehicle (100 µl sterile PBS). One of the Cat-S groups was pretreated with 30 mg/kg/day RO5459072 starting one week prior to Cat-S injection; another group was pretreated with a total of four daily intra-peritoneal injections of the PAR-2 inhibitor GB83 (10 mg/kg).
Urinary albumin/creatinine ratios were determined using the Mouse Albumin ELISA Quantitation set (Bethyl Laboratories, Montgomery, TX) and the Creatinine FS kit (DiaSys Diagnostic Systems, Holzheim, Germany)[44]. BUN levels were determined in plasma samples using a Urea FS kit (DiaSys Diagnostic Systems). Mouse IgM, IgG and its isotypes IgG1, IgG2a and IgG2b plasma levels were measured using ELISA Sets (Bethyl Laboratories) at a plasma dilution of 1:1,000 to 1:100,000. Double-stranded DNA IgG and IgM antibodies were quantified as described. Briefly, 96 well Nunc-Immuno plates (Thermo Fisher Scientific, Roskilde, Denmark) were coated with poly-L-lysine (1:1 diluted with PBS) and incubated for two hours. […] Absorbance was measured at 450 nm using a Tecan Microplate Reader (Biotek, Winnoski, VT). Indirect immunofluorescence was used to quantify ANA in mouse plasma. […]
Mouse kidney tissue was fixed in 2% paraformaldehyde/2% glutaraldehyde and 0.1M sodium phosphate buffer (pH 7.4) for 24 hours and processed as described. Samples were analyzed with a 1200EX electron microscope (JEOL, Tokyo, Japan).

[2] = system: MRL-(Fas)lpr mice; test: Experimental lupus nephritis, late onset of treatment week 15 to 19; settings: late onset week 15-19
Experimental: To further assess the potency of Cat-S inhibition to control advanced lupus nephritis we performed identical experiments with the highest dose of RO5459072 and MMF, which were not initiated before week 15 of age and continued for only 4 weeks and terminated again at week 19.
as §1
(§2) Kidney tissue samples were collected from all mice and fixed overnight in 4% buffered formalin. Subsequently the fixed tissue samples were embedded in paraffin and cut into 4 µm thick serial sections. Kidney paraffin sections were stained with periodic acid-Schiff (PAS) reaction using standardized protocols as described. Scoring of lupus nephritis activity and chronicity indices was performed according to human lupus nephritis, [43]. Methenamine silver staining was performed on paraffin embedded kidney sections and semiquantitatively scored form 0–3 by a blinded observer. For immunostaining the following primary antibodies were used: anti-mouse CD3 (Abcam, Cambridge, UK), complement C3c (Biobyt Ltd, Cambridge, UK), CD31 (Dianova GmbH, Hamburg, Germany), WT1 (Santa Cruz Biotechnology, Dallas, Texas) and nephrin (Acris Antibodies, San Diego, CA). The immunostaining for C3c and CD31 were analyzed using the ImageJ software by measuring positively stained area and dividing it by the total area of the glomerulus and reported as percentage of +ve area. Sections stained for WT1/nephrin and CD3 were evaluated by counting positive cells per glomerulus. All the morphometric analysis were carried out in a blinded fashion.
(§3) Urinary albumin/creatinine ratios were determined using the Mouse Albumin ELISA Quantitation set (Bethyl Laboratories, Montgomery, TX) and the Creatinine FS kit (DiaSys Diagnostic Systems, Holzheim, Germany)[44]. BUN levels were determined in plasma samples using a Urea FS kit (DiaSys Diagnostic Systems). Mouse IgM, IgG and its isotypes IgG1, IgG2a and IgG2b plasma levels were measured using ELISA Sets (Bethyl Laboratories) at a plasma dilution of 1:1,000 to 1:100,000. Double-stranded DNA IgG and IgM antibodies were quantified as described. Briefly, 96 well Nunc-Immuno plates (Thermo Fisher Scientific, Roskilde, Denmark) were coated with poly-L-lysine (1:1 diluted with PBS) and incubated for two hours. After washing the plates, the plates were coated with 1 µg/ml mouse tail dsDNA sparing the wells for standards, which were coated with anti-mIgG and anti-mIgM (Bethyl Laboratories). […]

[3] = system: MRL-(Fas)lpr mice; test: Experimental SLE and lupus nephritis, treatment week 11 to 19
Experimental: as §1, §2
as §3, with “Laboratories). The standard curve was fixed from purified mIgG and mIgM (Bethyl Laboratories). The plasma samples were diluted 1:1,000 and added into the wells. After 1 h the assay was developed using HRP-labelled goat anti-mIgG and anti-mIgM and TMB substrate (BD Bioscience, San Diego, CA).” for “Laboratories).”

Q: Which Cat-S-induced albuminuria ([1]; 30 min, RO5459072 30 mg/kg/day pretreatment, GB83 10 mg/kg i.p.) does the source give for `CC[C@H](C)[C@H](NC(=O)[C@H](CC1CCCCC1)NC(=O)c1ccno1)C(=O)N1CCC2(CCc3ccccc32)CC1` [GB83, reference compound] here?
A: completely prevented; also recorded: entirely blocked

Q: And the “Cat-S-induced glomerular endothelial cell injury (TEM)” value ([1]; 24 h)?
A: completely prevented

Q: Which results are given for `COc1c(C)c2c(c(O)c1C/C=C(\C)CCC(=O)OCCN1CCOCC1)C(=O)OC2` [MMF, mycophenolate mofetil, reference compound]?
A: anti-dsDNA IgM [2]: did not affect; lupus nephritis disease chronicity index [2]: failed to significantly suppress; plasma IgM levels [2]: trend toward lower; proteinuria and BUN at week 19 compared to control mice [2]: significantly reduced; plasma IgG and its isotypes and anti-dsDNA IgG ([2]; highest dose of RO5459072, MMF): had no effect; food intake or body weight between groups ([3]; medicated diets, throughout the study period): no significant difference; intrarenal mRNA expression of IL-6, MCP-1/CCL2, RANTES/CCL5 and CXCL2 ([3]; real time PCR, kidney): suppressed; intrarenal mRNA expression of TNF-α, IFN-γ and SDF-1/CXCL12 ([3]; real time PCR, kidney): remained unaffected; blood urea nitrogen (BUN) over time ([3]; week 11-19): prevented the progressive increase; total levels of plasma IgM ([3]; week 11-19, ELISA): suppressed plasma IgM levels below baseline; plasma dsDNA IgG levels (IgG autoantibodies) ([3]; week 11-19, RO5459072 highest dose, MMF 100 mg/kg/day, ELISA): does not reduce; spleen CD11c+/CD11b+/MHCII+ antigen-presenting cells ([3]; week 11-19, flow cytometry): suppressed; integrity of the glomerular vasculature (CD31 staining) ([3]; week 19): improved
